Data from ChEMBL document CHEMBL1201862, “PubChem BioAssay data set” (2004).
Calls of active or inactive are those of the source.

Legend:
[1] = target: DNA dC->dU-editing enzyme APOBEC-3A (Homo sapiens, UniProt P31941); assay: Dose Response confirmation of small molecule APOBEC3A DNA Deaminase Inhibitors via a fluorescence-based single-stranded DNA deaminase assay. [Related pubchem assays (depositor defined):AID493011, AID493024]; type: functional
[2] = target: T1, Zinc finger protein mex-5 (Caenorhabditis elegans, UniProt Q9XUB2); assay: MEX-5/TCR-2 RNA interaction inhibitors, dose response, biochemical, C. elegans, fluorescence polarization (AID 1960)
T1 sequence (Q9XUB2 whole entry): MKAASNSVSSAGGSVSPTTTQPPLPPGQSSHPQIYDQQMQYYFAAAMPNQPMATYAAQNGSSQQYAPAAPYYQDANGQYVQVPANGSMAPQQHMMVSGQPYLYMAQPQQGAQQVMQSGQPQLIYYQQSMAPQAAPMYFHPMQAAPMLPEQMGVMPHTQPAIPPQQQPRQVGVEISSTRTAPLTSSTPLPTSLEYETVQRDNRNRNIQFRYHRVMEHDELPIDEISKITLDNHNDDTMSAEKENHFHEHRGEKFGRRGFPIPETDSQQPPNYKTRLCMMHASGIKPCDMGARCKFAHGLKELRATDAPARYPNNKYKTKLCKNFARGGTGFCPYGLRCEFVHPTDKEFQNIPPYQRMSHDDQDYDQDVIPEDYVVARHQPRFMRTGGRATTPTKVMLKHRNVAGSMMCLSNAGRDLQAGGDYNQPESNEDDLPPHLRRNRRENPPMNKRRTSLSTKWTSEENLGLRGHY

[3] = target: T2, RNA-binding protein pos-1 (Caenorhabditis elegans, UniProt G5EF15); assay: inhibitors of POS-1/mex-3 RNA binding, dose response, biochemical, fluorescence polarization (AID 1964);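 note: purified POS-1 fused to maltose binding protein made in E. coli; potency of compounds blocking POS-1 binding to fluorescent RNA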
T2 sequence (G5EF15 whole entry): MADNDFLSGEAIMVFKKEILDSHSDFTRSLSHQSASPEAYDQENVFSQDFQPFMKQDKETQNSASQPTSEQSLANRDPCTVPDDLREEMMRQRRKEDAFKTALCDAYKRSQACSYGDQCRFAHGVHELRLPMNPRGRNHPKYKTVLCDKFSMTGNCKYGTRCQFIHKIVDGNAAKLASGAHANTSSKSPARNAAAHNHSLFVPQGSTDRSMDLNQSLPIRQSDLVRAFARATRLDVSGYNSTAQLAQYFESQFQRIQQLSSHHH

[4] = target: SWI/SNF-related matrix-associated actin-dependent regulator of chromatin subfamily A member 2 (Homo sapiens, UniProt P51531); assay: Luminescence-based cell-based high throughput dose response assay to identify activators of the function of SWI/SNF related, matrix associated, actin dependent regulator of chromatin, subfamily a, member 2 (SMARCA2, BRM).; type: functional
Chain of SWI/SNF-related matrix-associated actin-dependent regulator of chromatin subfamily A member 2 (P51531 whole entry): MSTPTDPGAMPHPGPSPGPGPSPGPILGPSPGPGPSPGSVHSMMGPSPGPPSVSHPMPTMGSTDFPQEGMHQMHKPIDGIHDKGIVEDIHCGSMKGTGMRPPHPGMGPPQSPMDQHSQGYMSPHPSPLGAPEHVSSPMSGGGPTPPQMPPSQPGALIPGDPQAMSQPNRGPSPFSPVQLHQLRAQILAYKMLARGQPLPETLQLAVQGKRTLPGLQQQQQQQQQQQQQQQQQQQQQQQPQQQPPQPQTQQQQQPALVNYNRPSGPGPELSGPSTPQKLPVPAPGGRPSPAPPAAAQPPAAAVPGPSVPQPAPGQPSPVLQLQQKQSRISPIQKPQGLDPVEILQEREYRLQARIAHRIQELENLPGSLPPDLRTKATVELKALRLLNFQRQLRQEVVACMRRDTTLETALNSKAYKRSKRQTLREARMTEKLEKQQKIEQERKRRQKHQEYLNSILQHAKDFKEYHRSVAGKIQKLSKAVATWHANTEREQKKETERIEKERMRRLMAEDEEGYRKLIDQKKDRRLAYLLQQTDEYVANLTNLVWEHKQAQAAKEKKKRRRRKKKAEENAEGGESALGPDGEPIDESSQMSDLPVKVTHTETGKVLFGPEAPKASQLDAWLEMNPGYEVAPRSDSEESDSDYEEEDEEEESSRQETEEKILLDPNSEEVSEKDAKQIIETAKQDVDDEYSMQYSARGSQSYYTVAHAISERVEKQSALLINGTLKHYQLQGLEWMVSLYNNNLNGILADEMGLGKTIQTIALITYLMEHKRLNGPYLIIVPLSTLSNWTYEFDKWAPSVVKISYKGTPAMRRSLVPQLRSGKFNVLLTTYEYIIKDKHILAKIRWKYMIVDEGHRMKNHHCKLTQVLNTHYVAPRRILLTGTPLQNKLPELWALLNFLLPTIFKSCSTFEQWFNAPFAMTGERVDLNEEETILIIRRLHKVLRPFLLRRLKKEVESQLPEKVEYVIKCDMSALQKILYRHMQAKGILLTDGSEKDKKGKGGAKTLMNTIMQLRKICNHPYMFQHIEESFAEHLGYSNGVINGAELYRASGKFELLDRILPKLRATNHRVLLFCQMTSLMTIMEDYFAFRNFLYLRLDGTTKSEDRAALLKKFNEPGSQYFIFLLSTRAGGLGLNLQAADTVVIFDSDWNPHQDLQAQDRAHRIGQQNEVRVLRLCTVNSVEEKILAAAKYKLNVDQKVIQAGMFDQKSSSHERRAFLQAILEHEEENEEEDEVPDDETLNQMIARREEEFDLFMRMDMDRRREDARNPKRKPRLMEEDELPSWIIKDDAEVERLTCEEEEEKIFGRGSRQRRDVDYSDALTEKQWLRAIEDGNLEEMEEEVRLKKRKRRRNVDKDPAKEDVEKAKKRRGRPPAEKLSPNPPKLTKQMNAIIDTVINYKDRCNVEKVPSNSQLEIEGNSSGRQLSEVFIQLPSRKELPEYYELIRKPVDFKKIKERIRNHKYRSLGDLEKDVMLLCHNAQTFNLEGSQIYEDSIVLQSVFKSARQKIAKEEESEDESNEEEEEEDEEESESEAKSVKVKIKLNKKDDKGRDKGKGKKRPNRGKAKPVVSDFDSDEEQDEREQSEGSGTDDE

[5] = Counterscreen for activators of the function of SWI/SNF related, matrix associated, actin dependent regulator of chromatin, subfamily a, member 2 (SMARCA2, BRM): Luminescence-based cell-based high throughput dose response assay to identify non-selective compounds using the VP16 reporter assay.; type: functional
[6] = target: DNA dC->dU-editing enzyme APOBEC-3G (Homo sapiens, UniProt Q9HC16); type: functional;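 note: Dose-response counterscreen measuring inhibition of APOBEC3G DNA deaminase activity, run while confirming APOBEC3A inhibitors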
Chain of DNA dC->dU-editing enzyme APOBEC-3G (Q9HC16 whole entry): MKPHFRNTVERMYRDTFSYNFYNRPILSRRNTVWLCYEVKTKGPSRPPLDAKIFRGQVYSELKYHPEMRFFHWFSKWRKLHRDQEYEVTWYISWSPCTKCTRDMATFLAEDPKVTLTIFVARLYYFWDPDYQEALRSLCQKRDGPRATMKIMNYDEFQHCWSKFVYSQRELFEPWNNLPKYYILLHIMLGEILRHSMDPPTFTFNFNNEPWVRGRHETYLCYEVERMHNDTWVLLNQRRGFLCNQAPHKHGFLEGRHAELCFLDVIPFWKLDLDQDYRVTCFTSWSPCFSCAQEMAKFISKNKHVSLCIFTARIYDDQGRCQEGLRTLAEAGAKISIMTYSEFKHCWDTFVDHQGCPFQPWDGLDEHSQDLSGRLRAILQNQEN

[7] = test system: Escherichia coli; assay: microbe, parasite or virus in culture
[8] = NIH-3T3 fibroblast cytotoxicity, dose response, cytotoxicity control, cell-based, fluorescence, Alamar Blue, secondary assay (AID 2327); type: functional;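 note: NIH-3T3 mouse fibroblasts cultured with fluconazole at 8 µg/mL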
[9] = C. albicans growth with fluconazole, confirmation, fluorescence, retest (AID 2467); type: functional, cell-based
[10] = target: T3, Serine/threonine-protein phosphatase (Candida dubliniensis (strain CD36 / CBS 7987 / NCPF 3949 / NRRLY-17841) (Yeast), UniProt B9W6M3); assay: calcineurin pathway inhibitors in yeast reporter, dose response, S. cerevisiae, CDRE-lacZ, luminescence, secondary (AID 2388); type: functional, cell-based;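 note: yeast reporter cells carrying a calcineurin-responsive lacZ construct stimulated with calcium chloride; luminescent beta-galactosidase reporter signal in whole cells rather than isolated phosphatase activity; potency for inhibition where a drop in reporter signal means calcineurin blockade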
T3 sequence (B9W6M3 whole entry): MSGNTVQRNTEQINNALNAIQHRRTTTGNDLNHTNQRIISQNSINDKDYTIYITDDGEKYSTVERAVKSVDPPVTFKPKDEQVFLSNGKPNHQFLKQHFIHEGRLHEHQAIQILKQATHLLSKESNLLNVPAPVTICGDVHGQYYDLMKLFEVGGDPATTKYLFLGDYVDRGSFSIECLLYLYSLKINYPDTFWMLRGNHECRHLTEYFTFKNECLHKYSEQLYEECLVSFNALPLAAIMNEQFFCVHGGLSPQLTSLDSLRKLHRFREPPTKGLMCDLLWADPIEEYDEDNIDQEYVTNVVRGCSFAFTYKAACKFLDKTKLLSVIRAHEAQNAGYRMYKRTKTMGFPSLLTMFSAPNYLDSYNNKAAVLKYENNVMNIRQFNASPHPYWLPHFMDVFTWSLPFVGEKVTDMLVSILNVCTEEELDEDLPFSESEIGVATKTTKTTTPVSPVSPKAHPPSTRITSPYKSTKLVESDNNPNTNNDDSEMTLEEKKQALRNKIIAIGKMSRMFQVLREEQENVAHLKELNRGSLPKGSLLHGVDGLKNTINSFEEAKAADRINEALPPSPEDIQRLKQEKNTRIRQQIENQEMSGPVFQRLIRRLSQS

[11] = target: ATP-dependent molecular chaperone HSP82 (Candida albicans (strain WO-1) (Yeast), UniProt C4YTQ8); assay: loss of DOC-induced GRE-beta-galactosidase reporter signal, dose response, Hsp90 inhibitor project, S. cerevisiae, luminescence (AID 2400); type: functional, cell-based;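 note: beta-galactosidase luminescence from glucocorticoid response element reporter as proxy for Hsp90 function; inhibitor potency where signal loss means Hsp90 inhibition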
Chain of ATP-dependent molecular chaperone HSP82 (C4YTQ8 whole entry): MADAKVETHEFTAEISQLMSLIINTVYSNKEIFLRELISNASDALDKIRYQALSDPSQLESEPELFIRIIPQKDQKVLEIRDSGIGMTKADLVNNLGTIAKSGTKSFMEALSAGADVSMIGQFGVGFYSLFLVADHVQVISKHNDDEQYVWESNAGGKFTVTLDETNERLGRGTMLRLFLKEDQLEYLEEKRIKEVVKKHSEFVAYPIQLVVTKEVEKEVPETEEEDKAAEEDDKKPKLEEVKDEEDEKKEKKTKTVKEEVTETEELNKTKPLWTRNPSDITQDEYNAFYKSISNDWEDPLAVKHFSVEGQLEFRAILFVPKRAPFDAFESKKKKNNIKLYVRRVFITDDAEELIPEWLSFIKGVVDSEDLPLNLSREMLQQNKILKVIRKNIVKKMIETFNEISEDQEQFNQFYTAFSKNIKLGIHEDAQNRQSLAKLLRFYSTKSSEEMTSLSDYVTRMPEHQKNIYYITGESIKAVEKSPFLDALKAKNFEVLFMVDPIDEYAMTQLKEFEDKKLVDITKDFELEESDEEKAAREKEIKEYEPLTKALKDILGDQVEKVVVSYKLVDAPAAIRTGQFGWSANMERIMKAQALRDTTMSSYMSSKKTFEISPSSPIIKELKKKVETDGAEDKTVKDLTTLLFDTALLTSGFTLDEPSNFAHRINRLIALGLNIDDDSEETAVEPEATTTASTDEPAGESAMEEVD

[12] = insulin promoter down-regulators in MIN6 cells, imaging, high-content screening, mouse beta cells (AID 1628); type: functional
[13] = HEK293T cytotoxicity, dose response, cytotoxicity control for miR-122 modulator project, cell-based, inhibitor set, cherry-pick, set 2 (AID 720697); type: functional
[14] = miR-122 activators in hepatoma reporter cells, dose response, cell-based, Huh7 psiCHECK-miR122, Renilla luciferase, cherry-picked (AID 651956); type: functional;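 note: huh7 hepatoma cells stably carrying a psiCHECK-2 miR-122 sensor plasmid; renilla luciferase signal reporting endogenous miR-122 activity after 48 h compound exposure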
[15] = cytotoxicity in MIN6 insulinoma cells, dose response, cytotoxicity control, cell-based, mouse insulinoma (AID 2122); type: functional;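 note: confirmatory high-throughput counterscreen run to flag cytotoxic compounds; mouse MIN-6 beta cells carrying an insulin promoter eGFP reporter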
[16] = target: T4, Coagulation factor XII (Homo sapiens, UniProt P00748); assay: FXIIa inhibitor potency, concentration-response, biochemical (AID 716); type: functional
T4 sequence (P00748 whole entry): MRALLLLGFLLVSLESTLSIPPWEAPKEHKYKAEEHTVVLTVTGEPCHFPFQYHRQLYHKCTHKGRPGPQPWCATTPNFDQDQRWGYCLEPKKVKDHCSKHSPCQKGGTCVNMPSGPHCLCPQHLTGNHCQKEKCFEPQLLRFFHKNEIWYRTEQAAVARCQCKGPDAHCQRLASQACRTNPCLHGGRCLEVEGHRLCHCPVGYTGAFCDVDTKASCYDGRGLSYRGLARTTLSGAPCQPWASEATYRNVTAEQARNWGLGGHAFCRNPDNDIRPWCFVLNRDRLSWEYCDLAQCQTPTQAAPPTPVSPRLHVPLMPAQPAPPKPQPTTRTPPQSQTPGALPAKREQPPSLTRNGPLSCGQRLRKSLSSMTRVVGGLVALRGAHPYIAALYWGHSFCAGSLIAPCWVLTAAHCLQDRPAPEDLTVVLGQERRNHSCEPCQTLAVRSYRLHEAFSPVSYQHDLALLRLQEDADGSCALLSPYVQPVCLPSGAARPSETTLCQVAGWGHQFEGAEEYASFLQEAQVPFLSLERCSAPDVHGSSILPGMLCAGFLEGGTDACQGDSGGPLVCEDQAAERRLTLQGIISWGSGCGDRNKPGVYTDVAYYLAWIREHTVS

[17] = cytotoxicity in HEK-293T cells, dose response, cytotoxicity control for TCR NF-kB inhibitor project, luminescence, T-cell screen hits (AID 489026); type: functional, cell-based;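 note: cells exposed to compound about 14 hours before the viability readout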
[18] = target: T5, COUP transcription factor 2 (Homo sapiens, UniProt P24468); assay: Luminescence-based cell-based high throughput dose response assay to identify inhibitors of COUP-TFII (NR2F2).; type: functional;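 note: HEK293 cells transiently cotransfected with COUP-TFII expression vector and reporter; luciferase reporter luminescence driven by COUP-TFII from the pX2-168 reporter plasmid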
T5 sequence (P24468 whole entry): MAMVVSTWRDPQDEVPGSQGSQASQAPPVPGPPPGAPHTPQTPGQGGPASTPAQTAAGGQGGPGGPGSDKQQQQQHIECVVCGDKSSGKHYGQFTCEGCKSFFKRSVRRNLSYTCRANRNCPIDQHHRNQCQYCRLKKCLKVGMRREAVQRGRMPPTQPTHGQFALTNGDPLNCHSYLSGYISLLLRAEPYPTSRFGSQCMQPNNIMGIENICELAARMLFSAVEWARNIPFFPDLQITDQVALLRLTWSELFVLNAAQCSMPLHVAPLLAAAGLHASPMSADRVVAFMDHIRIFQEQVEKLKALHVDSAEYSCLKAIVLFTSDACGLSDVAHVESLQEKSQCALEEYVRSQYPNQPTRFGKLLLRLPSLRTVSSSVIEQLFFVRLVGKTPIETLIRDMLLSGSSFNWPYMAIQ

[19] = target: T6, Nucleotide-binding oligomerization domain-containing protein 1 (Homo sapiens, UniProt Q9Y239); assay: NOD1 signaling inhibitors, SAR follow-up, revised (AID 2333); type: functional
T6 sequence (Q9Y239 whole entry): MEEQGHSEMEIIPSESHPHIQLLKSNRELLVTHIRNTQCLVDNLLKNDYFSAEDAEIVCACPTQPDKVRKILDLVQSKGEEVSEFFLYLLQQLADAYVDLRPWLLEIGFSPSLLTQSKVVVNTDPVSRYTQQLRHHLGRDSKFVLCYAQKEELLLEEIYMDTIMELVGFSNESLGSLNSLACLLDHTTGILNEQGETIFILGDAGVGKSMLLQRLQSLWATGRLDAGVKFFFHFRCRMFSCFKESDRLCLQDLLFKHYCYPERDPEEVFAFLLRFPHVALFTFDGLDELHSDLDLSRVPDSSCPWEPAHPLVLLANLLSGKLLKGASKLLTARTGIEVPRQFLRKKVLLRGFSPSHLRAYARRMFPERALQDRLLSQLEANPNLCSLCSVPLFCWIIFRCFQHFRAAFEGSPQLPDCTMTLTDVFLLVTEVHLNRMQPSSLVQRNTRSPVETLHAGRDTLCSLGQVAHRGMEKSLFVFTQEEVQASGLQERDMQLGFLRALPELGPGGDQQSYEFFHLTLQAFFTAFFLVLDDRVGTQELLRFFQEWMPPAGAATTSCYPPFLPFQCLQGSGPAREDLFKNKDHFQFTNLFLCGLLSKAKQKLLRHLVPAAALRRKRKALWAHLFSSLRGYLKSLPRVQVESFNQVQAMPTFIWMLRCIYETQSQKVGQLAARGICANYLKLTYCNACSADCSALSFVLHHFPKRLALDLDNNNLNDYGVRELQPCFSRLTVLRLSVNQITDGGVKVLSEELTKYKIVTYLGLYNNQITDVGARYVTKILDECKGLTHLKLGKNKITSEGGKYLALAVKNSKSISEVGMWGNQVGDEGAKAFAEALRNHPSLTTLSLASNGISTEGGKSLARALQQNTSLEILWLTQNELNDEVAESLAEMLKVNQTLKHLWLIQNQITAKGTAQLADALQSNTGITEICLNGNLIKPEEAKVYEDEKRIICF

[20] = test system: HEK293; assay: cells; type: functional, cell-based; conditions: Homo sapiens
[21] = test system: HEK293; assay: cells; type: functional, cell-based; conditions: Homo sapiens; remark: listed apart in the source
[22] = test system: HEK293; assay: NOD2 signaling inhibitors in MDP-stimulated cells, cell-based, uHTS, luminescence (AID 2001); type: functional; conditions: Homo sapiens
[23] = target: Tumor necrosis factor (Homo sapiens, UniProt P01375); assay: TNFa-triggered NF-kB activation inhibitors, SAR follow-up, cell-based, revised (AID 2337); type: functional
Chain of Tumor necrosis factor (P01375 whole entry): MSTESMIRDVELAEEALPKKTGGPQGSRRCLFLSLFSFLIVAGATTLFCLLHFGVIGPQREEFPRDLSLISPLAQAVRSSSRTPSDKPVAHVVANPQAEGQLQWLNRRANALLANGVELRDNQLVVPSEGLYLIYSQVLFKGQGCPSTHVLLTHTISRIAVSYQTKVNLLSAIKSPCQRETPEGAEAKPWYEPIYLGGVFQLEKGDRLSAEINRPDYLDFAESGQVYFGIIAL

[24] = test system: HEK293; assay: cells; conditions: Homo sapiens
[25] = test system: HEK293; assay: NOD1 signaling inhibitors, primary screen, cell-based, luminescence, uHTS (AID 1578); type: functional; conditions: Homo sapiens

Chain of DNA dC->dU-editing enzyme APOBEC-3A (P31941 whole entry): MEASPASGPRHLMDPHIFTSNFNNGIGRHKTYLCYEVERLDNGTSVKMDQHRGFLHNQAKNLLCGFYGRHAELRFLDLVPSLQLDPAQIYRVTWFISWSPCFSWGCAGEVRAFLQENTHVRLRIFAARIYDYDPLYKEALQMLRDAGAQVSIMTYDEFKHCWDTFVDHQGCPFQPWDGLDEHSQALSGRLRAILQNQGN

SMILES: Cc1ccc(N=Nc2[nH]c3ccccc3c2O)cc1
- IC50 [1]: 4.8 µM (active)
- EC50 [2]: 25.7 µM (inconclusive)
- EC50 [3]: 16 µM (active)
- EC50 [4]: > 91.1 µM (inactive)
- EC50 [5]: > 91.1 µM (inactive)
- IC50 [6]: 7.69 µM (active)

SMILES: CCO/C(O)=C1\C(C)=NC(=S)NC1c1cc(C)sc1C (centres undefined)
- AC50 [7]: 147 µM (active)

SMILES: CCSc1nnc(-c2ccc(C)cc2)c2ccccc12
- EC50 [8]: 17.2 µM (active)
- EC50 [9]: 0.305 µM (active)
- EC50 [10]: 24.7 µM (active)
- EC50 [11]: 62.4 µM (active)

SMILES: CC1CCC(C(C)C)C(OCC(O)C[N+]2(C)CCCCC2)C1 (centres undefined)
- IC50 [1]: 2.6 µM (active)
- IC50 [6]: 3.66 µM (active)

SMILES: COc1cc(-c2nnc3sc(C4CCCCC4)nn23)cc(OC)c1OC
- IC50 [12]: 0.981 µM (active)
- AC50 [13]: 1.08 µM (active)
- AC50 [14]: 55.5 µM (active)
- IC50 [15]: 9.75 µM (active)

SMILES: CC(=O)c1cccc(NS(=O)(=O)c2c(C)noc2C)c1
- IC50 [16]: > 50 µM (inactive)

SMILES: CCCCn1c2c(c(=N)c3c1CCC3)CCC2
- IC50 [12]: 1.47 µM (active)
- IC50 [17]: > 80 µM (inactive)
- IC50 [18]: 19.1 µM (inactive)
- IC50 [15]: 1.97 µM (active)

SMILES: CC(=O)N1c2ccc(S(=O)(=O)N3CCC(C(=O)Nc4cccc(C)n4)CC3)cc2CC1C (centres undefined)
- IC50 [19]: 4.8 µM (active)
- IC50 [20]: > 20 µM (inactive)
- IC50 [21]: 8.99 µM (active)
- IC50 [17]: > 80 µM (inactive)
- IC50 [22]: 12.4 µM (inactive)
- IC50 [23]: 6.02 µM (active)
- IC50 [24]: > 20 µM (inactive)
- EC50 [25]: 2.79 µM (active)

SMILES: CN1CCN(C(=O)c2ccc3c(=O)n(Cc4ccc(Cl)cc4)c(=S)[nH]c3c2)CC1
- IC50 [16]: > 50 µM (inactive)

SMILES: Cc1nnc(C)c2c(C)n(C(C)c3ccccc3)c(C)c12 (centres undefined)
- IC50 [12]: 2.5 µM (active)
- IC50 [15]: 2.6 µM (active)

SMILES: C=CCSc1nnc(Cc2cc(O)nc(O)n2)n1-c1cc(C)ccc1C
- IC50 [16]: > 50 µM (inactive)

SMILES: CC(C)(C)c1ccc(C(=O)ONC(=N)c2cccc([N+](=O)[O-])c2)cc1
- IC50 [19]: > 20 µM (inactive)
- IC50 [23]: > 20 µM (inactive)

SMILES: COc1cc(C(N)=O)cc(Br)c1OC
- IC50 [1]: 9.8 µM (active)
- IC50 [6]: 12.2 µM (active)

SMILES: COCCn1c(-c2cccc([N+](=O)[O-])c2)nc2c1c(=O)[nH]c(=O)n2Cc1ccccc1
- AC50 [7]: > 380 µM (inactive)
